Assay results from ChEMBL document CHEMBL3779837, “Inhibiting the Inflammasome: A Chemical Perspective” (J Med Chem, 2016).
Values belong to the compound of their own block, whether it stands above or below them.

Columns and labels:
Toll-like receptor 4 = biological target: T1, Toll-like receptor 4 (Mus musculus, UniProt Q9QUK6); test: Inhibition of TLR4 in LPS/INFgamma stimulated mouse peritoneal macrophages assessed as inhibition of IL1-beta after 20 hrs by ELISA analysis
T1 sequence (Q9QUK6 whole entry): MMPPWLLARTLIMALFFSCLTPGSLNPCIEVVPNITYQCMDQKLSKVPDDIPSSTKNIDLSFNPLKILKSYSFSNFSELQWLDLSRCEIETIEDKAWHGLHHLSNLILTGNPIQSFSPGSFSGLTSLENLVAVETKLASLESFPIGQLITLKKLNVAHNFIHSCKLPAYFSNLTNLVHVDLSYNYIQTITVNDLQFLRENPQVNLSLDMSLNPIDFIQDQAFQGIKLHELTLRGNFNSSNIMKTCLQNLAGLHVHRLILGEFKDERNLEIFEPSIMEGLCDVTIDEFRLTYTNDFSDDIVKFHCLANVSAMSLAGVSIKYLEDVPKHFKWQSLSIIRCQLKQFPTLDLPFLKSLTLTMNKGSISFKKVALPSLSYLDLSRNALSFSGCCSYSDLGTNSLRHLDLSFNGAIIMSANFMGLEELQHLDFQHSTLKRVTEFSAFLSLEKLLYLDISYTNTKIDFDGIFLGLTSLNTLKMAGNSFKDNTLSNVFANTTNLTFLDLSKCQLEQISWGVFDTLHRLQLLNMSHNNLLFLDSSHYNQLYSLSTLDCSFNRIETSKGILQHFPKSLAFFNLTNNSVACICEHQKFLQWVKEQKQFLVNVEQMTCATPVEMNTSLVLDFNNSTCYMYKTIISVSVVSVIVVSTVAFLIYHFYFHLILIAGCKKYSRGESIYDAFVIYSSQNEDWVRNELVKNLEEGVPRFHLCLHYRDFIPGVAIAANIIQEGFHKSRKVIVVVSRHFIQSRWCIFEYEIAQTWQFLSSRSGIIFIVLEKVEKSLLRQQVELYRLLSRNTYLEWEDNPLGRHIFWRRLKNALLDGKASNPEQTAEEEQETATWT

THP-1 = test: Inhibition of caspase-1-mediated IL-1beta production in LPS/ATP induced human THP1 cells by ELISA analysis; assay type: functional, cell-based
Caspase-1 = biological target: T2, Caspase-1 (Homo sapiens, UniProt P29466); test: Inhibition of caspase-1 in LPS stimulated human PMBC cells after 2 hrs by ELISA analysis; assay type: cell-based
T2 sequence (P29466 whole entry): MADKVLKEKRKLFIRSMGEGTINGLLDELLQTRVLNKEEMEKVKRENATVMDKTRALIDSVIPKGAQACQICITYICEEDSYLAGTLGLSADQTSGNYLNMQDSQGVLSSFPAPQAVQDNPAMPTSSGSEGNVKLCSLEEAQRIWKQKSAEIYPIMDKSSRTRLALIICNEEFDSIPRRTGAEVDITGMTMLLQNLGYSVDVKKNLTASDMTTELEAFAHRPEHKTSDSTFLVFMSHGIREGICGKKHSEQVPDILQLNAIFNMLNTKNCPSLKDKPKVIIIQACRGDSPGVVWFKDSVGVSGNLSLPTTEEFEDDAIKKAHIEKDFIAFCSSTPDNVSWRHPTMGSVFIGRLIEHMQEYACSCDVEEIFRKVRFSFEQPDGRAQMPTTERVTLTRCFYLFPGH

[1] = Half life in C57BL/6 mouse at 3 mg/kg, iv administered as single dose; assay type: ADME, organism-based; details: in vivo
[2] = Oral bioavailability in single dosed C57BL/6 mouse at 20 mg/kg; assay type: ADME, organism-based; details: in vivo
Pannexin-1 = Pannexin-1 (Homo sapiens, UniProt Q96RD7); test: Binding affinity to pannexin 1 channel (unknown origin)
Chain of Pannexin-1 (Q96RD7 whole entry): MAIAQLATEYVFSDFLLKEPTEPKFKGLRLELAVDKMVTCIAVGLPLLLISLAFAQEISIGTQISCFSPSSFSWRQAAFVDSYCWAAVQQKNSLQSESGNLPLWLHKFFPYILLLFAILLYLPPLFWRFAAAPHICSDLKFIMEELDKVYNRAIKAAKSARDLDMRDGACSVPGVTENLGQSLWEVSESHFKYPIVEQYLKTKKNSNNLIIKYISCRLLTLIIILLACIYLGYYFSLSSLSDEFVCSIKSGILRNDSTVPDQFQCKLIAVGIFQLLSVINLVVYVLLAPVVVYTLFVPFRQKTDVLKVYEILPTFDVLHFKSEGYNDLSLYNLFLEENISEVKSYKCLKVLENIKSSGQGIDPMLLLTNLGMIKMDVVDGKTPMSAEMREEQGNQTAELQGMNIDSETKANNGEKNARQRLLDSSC

[3] = Inhibition of organic anion transporter (unknown origin); design: species or system Homo sapiens
clinical = details: human, plasma, po, 500 mg
[4] = biological target: NACHT, LRR and PYD domains-containing protein 3 (Mus musculus, UniProt Q8R4B8); test: Inhibition of NLRP3 in LPS stimulated mouse BMDM cells after 15 mins followed by addition of ATP by ELISA analysis; assay type: cell-based
Chain of NACHT, LRR and PYD domains-containing protein 3 (Q8R4B8 whole entry, the tested form may be a part): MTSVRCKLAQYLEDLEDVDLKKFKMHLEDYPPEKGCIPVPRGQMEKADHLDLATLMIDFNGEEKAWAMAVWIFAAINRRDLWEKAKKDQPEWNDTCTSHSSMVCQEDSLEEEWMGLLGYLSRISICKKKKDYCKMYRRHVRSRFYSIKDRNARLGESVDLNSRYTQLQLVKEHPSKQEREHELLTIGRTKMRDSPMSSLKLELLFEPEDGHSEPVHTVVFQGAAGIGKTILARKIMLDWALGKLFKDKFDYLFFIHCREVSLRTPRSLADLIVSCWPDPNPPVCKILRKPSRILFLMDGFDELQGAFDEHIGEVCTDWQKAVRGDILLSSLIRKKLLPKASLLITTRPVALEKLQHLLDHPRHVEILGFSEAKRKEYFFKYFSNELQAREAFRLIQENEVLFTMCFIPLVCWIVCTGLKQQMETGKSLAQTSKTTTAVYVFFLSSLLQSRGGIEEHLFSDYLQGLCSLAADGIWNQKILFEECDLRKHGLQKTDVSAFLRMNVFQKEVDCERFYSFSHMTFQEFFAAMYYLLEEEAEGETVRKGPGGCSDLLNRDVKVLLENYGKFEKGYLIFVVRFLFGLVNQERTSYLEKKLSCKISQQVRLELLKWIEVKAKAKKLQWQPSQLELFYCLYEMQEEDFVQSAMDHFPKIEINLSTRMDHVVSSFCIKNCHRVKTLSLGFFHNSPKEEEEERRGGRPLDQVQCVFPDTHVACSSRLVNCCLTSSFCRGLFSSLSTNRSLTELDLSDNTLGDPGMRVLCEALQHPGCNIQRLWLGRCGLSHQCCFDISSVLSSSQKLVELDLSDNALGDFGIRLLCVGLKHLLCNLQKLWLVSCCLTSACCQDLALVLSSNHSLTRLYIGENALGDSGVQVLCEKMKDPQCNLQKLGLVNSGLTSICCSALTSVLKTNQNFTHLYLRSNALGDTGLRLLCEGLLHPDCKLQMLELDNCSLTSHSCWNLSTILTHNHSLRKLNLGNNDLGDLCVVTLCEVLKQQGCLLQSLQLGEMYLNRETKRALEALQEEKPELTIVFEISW

IC50 (Toll-like receptor 4): 5.7 nM
Compound: CCOC(=O)C1=CCCC[C@H]1S(=O)(=O)Nc1ccc(F)cc1Cl [RESATORVID]

IC50 (THP-1): 190 nM
Compound: O=C1C(Br)=C[C@@H](O)[C@@H]2O[C@H]12

IC50 (Caspase-1): 670 nM
Compound: O=C[C@H](CC(=O)O)NC(=O)[C@@H]1CCCN2C(=O)CC[C@H](NC(=O)c3nccc4ccccc34)C(=O)N12 [VRT-18858]

IC50 (THP-1): 200 nM
Compound: O=C1C(Br)=C[C@@H](O)[C@H]2O[C@@H]12

IC50 (THP-1): 170 nM
Compound: O=C1C(Br)=C[C@H](O)[C@H]2O[C@@H]12

half-life [1]: 180 min
bioavailability [2]: 68%
Compound: CC(C)(O)c1coc(S(=O)(=O)NC(=O)Nc2c3c(cc4c2CCC4)CCC3)c1

IC50 (THP-1): 280 nM
Compound: O=C1C(Br)=C[C@H](O)[C@@H]2O[C@H]12

IC50 (Pannexin-1): 150 µM
IC50 [3]: < 100 µM
Cmax at 48 h (clinical): 124 µM
Compound: CCCN(CCC)S(=O)(=O)c1ccc(C(=O)O)cc1 [PROBENECID]

IC50 (Caspase-1): 420 nM
Compound: CCO[C@@H]1OC(=O)C[C@@H]1NC(=O)[C@@H]1CCCN2C(=O)CC[C@H](NC(=O)c3nccc4ccccc34)C(=O)N12 [PRALNACASAN]

Compound: O=[N+]([O-])/C=C/c1ccc2c(c1)OCO2
IC50 [4]: 2000 nM
